Values of other authors in PubChem BioAssay AID1259409 (Chemical Carcinogenesis Research Information System (CCRIS), 2018).

Tested on: rodent chemically induced tumor inhibition, incidence and multiplicity
Assay: CCRIS tumor inhibitor studies
Conditions: Route [Inhibitor]: ORAL, Promoter: NONE USED
Source text: The CCRIS database contains chemical records with carcinogenicity, mutagenicity, tumor promotion, and tumor inhibition test results. It was developed by the National Cancer Institute (NCI). Data are derived from studies cited in primary journals, current awareness tools, NCI reports, and other sources. Test results have been reviewed by experts in carcinogenesis and mutagenesis.
CCRIS provides historical information from the years 1985 - 2011. It is no longer updated.
This is an archive assay for CCRIS tumor inhibitor studies.

| SMILES | tumour outcome (control, treated, inhibition, significance) (Carcinogen: BENZO[A]PYRENE, 50-32-8, Dose [Inhibitor]: 1000 PPM IN DIET CONTAINING 5% CORN OIL BEGINNING 1 WK PRIOR TO 1ST CARCINOGEN TREATMENT AND CONTINUING FOR 18 WK (STUDY, Species: MOUSE, Strain/Sex: STRAIN-A/FEMALE, Target Tissue: Type of Lesion: FORESTOMACH: SQUAMOUS CELL PAPILLOMA, Dose [Carcinogen]: 3 MG IN 0.25 ML CORN OIL AT 10 AND 12 WK OF AGE) | tumour outcome (control, treated, inhibition, significance) (Carcinogen: BENZO[A]PYRENE, 50-32-8, Dose [Inhibitor]: 1000 PPM IN DIET CONTAINING 5% CORN OIL BEGINNING 1 WK PRIOR TO 1ST CARCINOGEN TREATMENT AND CONTINUING FOR 18 WK (STUDY, Species: MOUSE, Strain/Sex: STRAIN-A/FEMALE, Target Tissue: Type of Lesion: LUNG: ADENOMA, Dose [Carcinogen]: 3 MG IN 0.25 ML CORN OIL AT 10 AND 12 WK OF AGE) | tumour outcome (control, treated, inhibition, significance) (Carcinogen: BENZO[A]PYRENE, 50-32-8, Dose [Inhibitor]: 1500 PPM IN DIET CONTAINING 5% CORN OIL BEGINNING 1 DAY POST LAST CARCINOGEN DOSE AND CONTINUING FOR 12 WK (STUDY DURATI, Species: MOUSE, Strain/Sex: STRAIN-A/FEMALE, Target Tissue: Type of Lesion: LUNG: ADENOMA, Dose [Carcinogen]: 3 MG IN 0.25 ML CORN OIL AT 6 AND 8 WK OF AGE) | tumour outcome (control, treated, inhibition, significance) (Carcinogen: BENZO[A]PYRENE, 50-32-8, Dose [Inhibitor]: 1500 PPM IN DIET CONTAINING 5% CORN OIL BEGINNING 1 WK POST LAST CARCINOGEN DOSE AND CONTINUING FOR 12 WK (STUDY DURATIO, Species: MOUSE, Strain/Sex: STRAIN-A/FEMALE, Target Tissue: Type of Lesion: FORESTOMACH: SQUAMOUS CELL PAPILLOMA, Dose [Carcinogen]: 3 MG IN 0.25 ML CORN OIL AT 6 AND 8 WK OF AGE) | tumour outcome (control, treated, inhibition, significance) (Carcinogen: BENZO[A]PYRENE, 50-32-8, Dose [Inhibitor]: 1500 PPM IN DIET CONTAINING 5% CORN OIL BEGINNING 4 D POST LAST CARCINOGEN DOSE AND CONTINUING FOR 12 WK (STUDY DURATION, Species: MOUSE, Strain/Sex: STRAIN-A/FEMALE, Target Tissue: Type of Lesion: FORESTOMACH: SQUAMOUS CELL PAPILLOMA, Dose [Carcinogen]: 3 MG IN 0.25 ML CORN OIL AT 6 AND 8 WK OF AGE) | tumour outcome (control, treated, inhibition, significance) (Carcinogen: BENZO[A]PYRENE, 50-32-8, Dose [Inhibitor]: 1500 PPM IN DIET CONTAINING 5% CORN OIL BEGINNING 4 D POST LAST CARCINOGEN DOSE AND CONTINUING FOR 12 WK (STUDY DURATION, Species: MOUSE, Strain/Sex: STRAIN-A/FEMALE, Target Tissue: Type of Lesion: LUNG: ADENOMA, Dose [Carcinogen]: 3 MG IN 0.25 ML CORN OIL AT 6 AND 8 WK OF AGE) | tumour outcome (control, treated, inhibition, significance) (Carcinogen: BENZO[A]PYRENE, 50-32-8, Dose [Inhibitor]: 1500 PPM IN DIET CONTAINING 5% CORN OIL BEGINNING 7 D POST LAST CARCINOGEN DOSE AND CONTINUING FOR 12 WK (STUDY DURATION, Species: MOUSE, Strain/Sex: STRAIN-A/FEMALE, Target Tissue: Type of Lesion: FORESTOMACH: SQUAMOUS CELL PAPILLOMA, Dose [Carcinogen]: 3 MG IN 0.25 ML CORN OIL AT 6 AND 8 WK OF AGE) | tumour outcome (control, treated, inhibition, significance) (Carcinogen: BENZO[A]PYRENE, 50-32-8, Dose [Inhibitor]: 1500 PPM IN DIET CONTAINING 5% CORN OIL BEGINNING 7 D POST LAST CARCINOGEN DOSE AND CONTINUING FOR 12 WK (STUDY DURATION, Species: MOUSE, Strain/Sex: STRAIN-A/FEMALE, Target Tissue: Type of Lesion: LUNG: ADENOMA, Dose [Carcinogen]: 3 MG IN 0.25 ML CORN OIL AT 6 AND 8 WK OF AGE) | tumour outcome (control, treated, inhibition, significance) (Carcinogen: BENZO[A]PYRENE, 50-32-8, Dose [Inhibitor]: 1500 PPM IN DIET CONTAINING 5% CORN OIL BEGINNING ON DAY OF LAST CARCINOGEN DOSE AND CONTINUING FOR 12 WK (STUDY DURATIO, Species: MOUSE, Strain/Sex: STRAIN-A/FEMALE, Target Tissue: Type of Lesion: FORESTOMACH: SQUAMOUS CELL PAPILLOMA, Dose [Carcinogen]: 3 MG IN 0.25 ML CORN OIL AT 6 AND 8 WK OF AGE) | tumour outcome (control, treated, inhibition, significance) (Carcinogen: BENZO[A]PYRENE, 50-32-8, Dose [Inhibitor]: 1500 PPM IN DIET CONTAINING 5% CORN OIL BEGINNING ON DAY OF LAST CARCINOGEN DOSE AND CONTINUING FOR 12 WK (STUDY DURATIO, Species: MOUSE, Strain/Sex: STRAIN-A/FEMALE, Target Tissue: Type of Lesion: LUNG: ADENOMA, Dose [Carcinogen]: 3 MG IN 0.25 ML CORN OIL AT 6 AND 8 WK OF AGE) | tumour outcome (control, treated, inhibition, significance) (Carcinogen: BENZO[A]PYRENE, 50-32-8, Dose [Inhibitor]: 2000 PPM IN DIET CONTAINING 5% CORN OIL BEGINNING 1 WK PRIOR TO 1ST CARCINOGEN TREATMENT AND CONTINUING FOR 18 WK (STUDY, Species: MOUSE, Strain/Sex: STRAIN-A/FEMALE, Target Tissue: Type of Lesion: FORESTOMACH: SQUAMOUS CELL PAPILLOMA, Dose [Carcinogen]: 3 MG IN 0.25 ML CORN OIL AT 10 AND 12 WK OF AGE) | tumour outcome (control, treated, inhibition, significance) (Carcinogen: BENZO[A]PYRENE, 50-32-8, Dose [Inhibitor]: 2000 PPM IN DIET CONTAINING 5% CORN OIL BEGINNING 1 WK PRIOR TO 1ST CARCINOGEN TREATMENT AND CONTINUING FOR 18 WK (STUDY, Species: MOUSE, Strain/Sex: STRAIN-A/FEMALE, Target Tissue: Type of Lesion: LUNG: ADENOMA, Dose [Carcinogen]: 3 MG IN 0.25 ML CORN OIL AT 10 AND 12 WK OF AGE) | tumour outcome (control, treated, inhibition, significance) (Carcinogen: 4-DIMETHYLAMINOAZOBENZENE, 60-11-7, Dose [Inhibitor]: 0.5% OF DIET DAILY STARTING SIMULTANEOUSLY WITH CARCINOGEN TREATMENT AND CONTINUING THROUGH THE END OF THE STUDY (STUDY, Species: RAT, Strain/Sex: OSBORNE-MENDEL/MALE, Target Tissue: Type of Lesion: LIVER: HEPATOMA, ADENOCARCINOMA, Dose [Carcinogen]: 0.06% OF DIET DAILY THROUGH THE END OF THE STUDY) |
| --- | --- | --- | --- | --- | --- | --- | --- | --- | --- | --- | --- | --- | --- |
| CCCN(CCC)c1c([N+](=O)[O-])cc(C(F)(F)F)cc1[N+](=O)[O-] | 100%, 84%, 16%, not significant | 97%, 96%, 1%, not significant | 80%, 32%, 60%, not significant | 100%, 88%, 12%, not significant | 92%, 80%, 13%, not significant | 72%, 40%, 44%, not significant | 100%, 92%, 8%, not significant | 72%, 60%, 17%, not significant | 88%, 100%, -14%, not significant | 76%, 52%, 32%, not significant | 100%, 63%, 37%, not calculated | 97%, 74%, 24%, not calculated | – |
| N[C@@H](CSSC[C@H](N)C(=O)O)C(=O)O | – | – | – | – | – | – | – | – | – | – | – | – | 48/80 (60%), 84/87 (97%), -62%, not calculated |
